Measured values as given in paper PMC10630842, “Impact of dietary plant flavonoids on 7,8‐dihydroxyflavone transepithelial transport in human intestinal Caco‐2 cells” (Food Science & Nutrition, 2023).
Several values for one entry are separate records, joined by “and”; a condition that tells them apart may be missing. Identical values can stand only once.

Assays:
[1] = set-up: method as in Liu et al., 2013; settings: C57BL/6 mice, ref Liu et al., 2013; cited from earlier work
[2] = Stability of 7,8-DHF in HBSS; format: physicochemical; settings: HBSS pH 7.4, 37°C, 10 μmol/L
Procedure: (§5) Simultaneously, 0.5 mL of the aforementioned solution was added to the AP side of the Transwell culture plate containing Caco‐2 cells, while 1.5 mL of blank HBSS added to the BL side. […] The Caco‐2 cell stability test was performed under both inhibitory and non‐inhibitory conditions, and the 7,8‐DHF content in the samples was determined.
(§6) A volume of 200 μL of receiving solution was transferred into a 1 mL centrifuge tube, followed by adding 10 μL of internal standard solution (10 μg/mL apigenin) and 200 μL of methanol. […] Thereafter, 5 μL of the supernatant was injected into the UPLC system. The UPLC system used in this study was a Waters ACQUITY UPLC H‐CLASS series instrument (Waters) equipped with a quaternary solvent manager, a sample manager‐flow through needle, a chromatographic column heater and a PDA eλ detector. […] The mobile phase comprised of methanol (solvent A) and 0.05% trifluoroacetic acid of ultrapure water (solvent B). The gradient elution program was as follows: 20% solvent A (0~1 min), 20%~80% solvent A (1~5 min), 80%~100% solvent A (5~7 min), 100 ~ 20% solvent A (7~8 min), and 20% solvent A (8~9 min). The flow rate maintained at 0.2 mL/min, the temperature was set to 37°C, and the PDA detector wavelength was set at 330 nm.

Caco‐2 cells [3] = experiment: Cytotoxicity, CCK-8 assay; format: cell-based, human; settings: 24 h
Procedure: To determine the cytotoxicity of 7,8‐DHF for transport experiments, a CCK‐8 assay was carried out (Han et al., [2023]). A total of 200 μL culture medium containing Caco‐2 cells at a density of 3 × 10^4 cells/mL was seeded in a 96‐well plate and incubated for 24 h to allow for adherence. After the incubation period, the culture medium was removed and replaced with 200 μL fresh medium containing 7,8‐DHF at concentrations of 1, 10, 50, 100, and 300 μmol/L. Additionally, 200 μL medium without 7,8‐DHF was added as the control group, while medium without cells was used as the blank group. Following 24 h of drug stimulation, 10 μL CCK‐8 reagent was added to each well followed by another 2 h incubation. The absorbance was measured at 450 nm wavelength using an enzyme‐linked immunosorbent assay reader (Eonmei, BioTek). Each sample was repeated five times, and the cell survival rate was calculated using the following formula: (2) Cell survival rate%=ODsample group−ODblank group/ODcontrol group−ODblank group×100 where OD represents the absorbance of each sample at 450 nm wavelength.

in vitro = in vitro ADME, human; settings: human, Caco-2
Procedure: (§1) For this experiment, the 7,8‐DHF sample was first dissolved in a small amount of dimethyl sulfoxide (DMSO) and then diluted with HBSS to a working concentration of 10 μmol/L. The final DMSO concentration in the working solution was controlled to be less than 0.5%. […] Flavonoid samples were added to the AP and BL sides at equimolar concentrations with 7,8‐DHF (the sample concentration in HBSS solution was 10 μmol/L). Prior to transport, dietary flavonoids were pretreated on the AP side for 30 min. Then, these flavonoid reagents were removed, and a 0.5 mL HBSS solution containing various dietary flavonoids with 7,8‐DHF (concentration of 10 μmol/L) was added to the AP side, while 1.5 mL of blank HBSS was added to the BL side. Conversely, 1.5 mL of HBSS solution containing various dietary flavonoids with 7,8‐DHF (10 μmol/L) was added to the BL side, and 0.5 mL of blank HBSS was added to the AP side.
(§2) The magnitude of the apparent permeability coefficients (P app, cm/s) and efflux ratio (ER) reflects the ability of the test substance to pass through the monolayer cells and the speed of absorption.
(§3) (4) ER=PappAB/PappBA where P app AB is the apparent permeability coefficient for AP → BL transport, and P app BA is the apparent permeability coefficient for BL → AP transport.
(§4) Effect of different concentrations of specific flavonoids on 7,8‐DHF transepithelial transport was investigated. The operating procedure was followed by above section, with the exception that specific dietary flavonoid samples were added to the AP and BL sides at varying molar ratios with 7,8‐DHF (2:1, 1:1, 1:2, and 1:4). The specific dietary flavonoids were dissolved in HBSS while controlling the DMSO concentration to be less than 0.5%.

Caco‐2 cells [4] = experiment: Uptake amount of 7,8-DHF in Caco-2 cells at the end of transport; format: in vitro ADME, human
Procedure: The cell surface was rapidly washed three times with ice-cold HBSS solution. The cells were harvested using a cell scraper and resuspended in 1.0 mL of 0.1% extraction solution (phosphate: methanol = 1:1, v/v) before being homogenized in an ultrasonicator.

[5] = set-up: method as in Xiao and Högger (2015); settings: DMEM solutions during Caco‐2 cell incubation; ref Xiao and Högger (2015); cited from earlier work
Caco‐2 cells [6] = experiment: Stability (recovery) of 7,8-DHF in Caco-2 cells with or without inhibitors; settings: 60 and 240 min incubation
Procedure: as §5, §6

[7] = as above; settings: human, Caco-2, pH 7.4
Procedure: as §5, §6

Caco‐2 monolayers = experiment: Bi-directional transepithelial transport of 7,8-DHF across Caco-2 monolayers with flavonoids screened as P-gp inhibitors (Papp, ER); format: in vitro ADME, human; settings: for Modulatory effect on 7,8‐DHF transport: flavonoid equimolar with 7,8‐DHF 10 μmol/L; on Modulatory effect on 7,8‐DHF transport: key: + indicates that the inhibitor has a significant effect on 7,8‐DHF transport; − indicates that the inhibitor has no significant effect on 7,8‐DHF transport
Procedure: as §1, §2, §3, §4

[8] = In vitro digestion stability of 7,8-DHF (simulated saliva, gastric fluid, intestinal fluid); format: in vitro ADME; settings: 7,8‐DHF combined with the named flavonoid
Procedure: The in vitro digestion model proposed by Versantvoort et al.'s report was modified as follows (Versantvoort et al., [2005]): […] The pH of the system was then adjusted to 7.5 and simulated intestinal fluid containing pancreatin and bile salts was added for 2 h of stirring. During the process, a certain amount of the digested liquid sample from the simulated saliva, gastric fluid, and intestinal fluid were taken, and ethanol was added to precipitate and inactivate the enzymes. […] A 1 mL aliquot was placed in a high-speed centrifuge tube (3K15, Sigma) and centrifuged at 4°C, 11000 × g for 15 min.

[9] = human, Caco-2, 150 min, 10 μmol/L

Compound: O=c1cc(-c2ccccc2)oc2c(O)c(O)ccc12 [7,8‐DHF, 7,8‐Dihydroxyflavone]
- Oral bioavailability [1]: 4.6%
- Recovery of 7,8-DHF ([2]; 60 min): 98.71±1.07%
- Recovery of 7,8-DHF ([2]; 240 min): 97.26±2.17%
- Cell toxicity toward Caco‐2 cells (CCK‐8) (Caco‐2 cells [3]; 300 μmol/L): certain cell toxicity
- Cell toxicity toward Caco‐2 cells (CCK‐8) (Caco‐2 cells [3]; concentration range 1~100 μmol/L): no significant cell toxicity
- Papp A→B at 150 min, 10 μmol/L (in vitro): 1.19 ± 0.08 ×10⁻⁶ cm/s
- Papp B→A at 150 min, 10 μmol/L (in vitro): 1.91 ± 0.13 ×10⁻⁶ cm/s
- efflux ratio at 150 min, 10 μmol/L (in vitro): 1.61
- Uptake amount of 7,8‐DHF in Caco‐2 cells (Caco‐2 cells [4]; control, 7,8‐DHF without inhibitor, end of 150 min transport): 0.378 ± 0.018 nmol/mg protein
- Half‐degradation time [5]: above 180 min
- Metabolism of 7,8‐DHF in Caco‐2 cells (recovery vs blank HBSS) (Caco‐2 cells [6]): not metabolized
- recovery at 60 min, 10 μmol/L [7]: 99.11 ± 0.57%
- recovery at 240 min, 10 μmol/L [7]: 97.74 ± 0.42%

Compound: O=c1cc(-c2ccccc2)oc2cc(O)c(O)c(O)c12 [Baicalein, baicalein]
- Modulatory effect on 7,8‐DHF transport (Caco‐2 monolayers; verapamil 100 μmol/L): +
- ER of 7,8‐DHF in presence of the named inhibitor (Caco‐2 monolayers; [9]): 1.59

Compound: COc1ccc(-c2coc3cc(O)cc(O)c3c2=O)cc1 [Biochanin A, biochanin A]
- Modulatory effect on 7,8‐DHF transport (Caco‐2 monolayers; verapamil 100 μmol/L): −

Compound: O=C(O[C@@H]1Cc2c(O)cc(O)cc2O[C@@H]1c1cc(O)c(O)c(O)c1)c1cc(O)c(O)c(O)c1 [EGCG, epigallocatechin gallate]
- ER of 7,8‐DHF in presence of the named inhibitor (Caco‐2 monolayers; 7,8‐DHF 10 μmol/L, flavonoid equimolar (1:1, 10 μmol/L), verapamil 100 μmol/L): 1.34
- P app AB of 7,8‐DHF in presence of the named inhibitor (Caco‐2 monolayers; 7,8‐DHF 10 μmol/L, flavonoid equimolar (1:1, 10 μmol/L), verapamil 100 μmol/L, AP → BL, 150 min): 1.21 ± 0.03 ×10^−6 cm/s
- P app BA of 7,8‐DHF in presence of the named inhibitor (Caco‐2 monolayers; 7,8‐DHF 10 μmol/L, flavonoid equimolar (1:1, 10 μmol/L), verapamil 100 μmol/L, BL → AP, 150 min): 1.63 ± 0.05 ×10^−6 cm/s and 1.62 ± 0.05 ×10^−6 cm/s
- ER of 7,8‐DHF in presence of the named inhibitor (Caco‐2 monolayers; 7,8‐DHF 10 μmol/L, flavonoid equimolar (1:1, 10 μmol/L), verapamil 100 μmol/L, listed as epigallocatechin gallate): less than 1.5
- Modulatory effect on 7,8‐DHF transport (Caco‐2 monolayers; verapamil 100 μmol/L): +

Compound: O=c1c(O)c(-c2ccc(O)c(O)c2)oc2cc(O)ccc12 [Fisetin, fisetin]
- Modulatory effect on 7,8‐DHF transport (Caco‐2 monolayers; verapamil 100 μmol/L): +

Compound: O=c1c(-c2ccc(O)cc2)coc2cc(O)cc(O)c12 [Genistein, genistein]
- Modulatory effect on 7,8‐DHF transport (Caco‐2 monolayers; verapamil 100 μmol/L): +

Compound: O=c1cc(-c2ccc(O)c(O)c2)oc2cc(O)c([C@@H]3O[C@H](CO)[C@@H](O)[C@H](O)[C@H]3O)c(O)c12 [Isoorientin, isoorientin]
- Modulatory effect on 7,8‐DHF transport (Caco‐2 monolayers; verapamil 100 μmol/L): +

Compound: O=c1cc(-c2ccc(O)cc2)oc2cc(O)c([C@@H]3O[C@H](CO)[C@@H](O)[C@H](O)[C@H]3O)c(O)c12 [Isovitexin, isovitexin]
- Modulatory effect on 7,8‐DHF transport (Caco‐2 monolayers; verapamil 100 μmol/L): +
- ER of 7,8‐DHF in presence of the named inhibitor (Caco‐2 monolayers; [9]): 1.55
- P app AB of 7,8‐DHF in presence of the named inhibitor (Caco‐2 monolayers; [9]): 1.27 ± 0.08 ×10^−6 cm/s
- P app BA of 7,8‐DHF in presence of the named inhibitor (Caco‐2 monolayers; [9]): 1.97 ± 0.11 ×10^−6 cm/s

Compound: O=c1c(O)c(-c2ccc(O)cc2)oc2cc(O)cc(O)c12 [Kaempferol, kaempferol]
- Modulatory effect on 7,8‐DHF transport (Caco‐2 monolayers; verapamil 100 μmol/L): +
- Effect of combined flavonoid on retention of 7,8‐DHF in simulated in vitro digestion [8]: no significant effects were observed

Compound: O=c1c(O)c(-c2cc(O)c(O)c(O)c2)oc2cc(O)cc(O)c12 [Myricetin, myricetin]
- Modulatory effect on 7,8‐DHF transport (Caco‐2 monolayers; verapamil 100 μmol/L): +

Compound: O=C1C[C@@H](c2ccc(O)cc2)Oc2cc(O)cc(O)c21 [Naringenin, naringenin]
- Modulatory effect on 7,8‐DHF transport (Caco‐2 monolayers; verapamil 100 μmol/L): −
- P app AB of 7,8‐DHF in presence of the named inhibitor (Caco‐2 monolayers; [9]): 1.16 ± 0.02 ×10^−6 cm/s
- P app BA of 7,8‐DHF in presence of the named inhibitor (Caco‐2 monolayers; [9]): 1.88 ± 0.11 ×10^−6 cm/s

Compound: O=c1cc(-c2ccc(O)c(O)c2)oc2c([C@@H]3O[C@H](CO)[C@@H](O)[C@H](O)[C@H]3O)c(O)cc(O)c12 [Orientin]
- Modulatory effect on 7,8‐DHF transport (Caco‐2 monolayers; verapamil 100 μmol/L): −

Compound: O=c1c(O)c(-c2ccc(O)c(O)c2)oc2cc(O)cc(O)c12 [Quercetin, quercetin]
- Modulatory effect on 7,8‐DHF transport (Caco‐2 monolayers; verapamil 100 μmol/L): +
- Uptake amount of 7,8‐DHF in Caco‐2 cells with the named flavonoid (Caco‐2 cells [4]; molar concentration ratio flavonoid to 7,8‐DHF 1:2): did not increase the uptake
- Uptake amount of 7,8‐DHF in Caco‐2 cells with the named flavonoid (Caco‐2 cells [4]; molar concentration ratio flavonoid to 7,8‐DHF 4:1): did not increase the uptake
- Effect of combined flavonoid on retention of 7,8‐DHF in simulated in vitro digestion [8]: no significant effects were observed

Compound: O=c1cc(-c2ccc(O)cc2)oc2c([C@@H]3O[C@H](CO)[C@@H](O)[C@H](O)[C@H]3O)c(O)cc(O)c12 [Vitexin, vitexin]
- Modulatory effect on 7,8‐DHF transport (Caco‐2 monolayers; verapamil 100 μmol/L): −
- P app AB of 7,8‐DHF in presence of the named inhibitor (Caco‐2 monolayers; [9]): 1.14 ± 0.16 ×10^−6 cm/s
- P app BA of 7,8‐DHF in presence of the named inhibitor (Caco‐2 monolayers; [9]): 1.94 ± 0.03 ×10^−6 cm/s
- Uptake amount of 7,8‐DHF in Caco‐2 cells after treatment with the named inhibitor (Caco‐2 cells [4]; flavonoid: 7,8‐DHF 1:1 (equimolar), verapamil 100 μmol/L, end of 150 min transport): significant decrease
